Values of other authors, collected in PMC9516332 (Frontiers in Oncology, 2022).
Where two headings read alike, the source gives them in different places.

Legend:
Settings in all cases: cited from earlier work
[1] = target: panel of 255 wild-type kinases (Homo sapiens, UniProt P57059)
[2] = target: panel of 255 wild-type kinases (Homo sapiens, UniProt Q05655)
[3] = target: T1, panel of 255 wild-type kinases (Homo sapiens, UniProt Q16832)
T1 sequence (Q16832 22-855): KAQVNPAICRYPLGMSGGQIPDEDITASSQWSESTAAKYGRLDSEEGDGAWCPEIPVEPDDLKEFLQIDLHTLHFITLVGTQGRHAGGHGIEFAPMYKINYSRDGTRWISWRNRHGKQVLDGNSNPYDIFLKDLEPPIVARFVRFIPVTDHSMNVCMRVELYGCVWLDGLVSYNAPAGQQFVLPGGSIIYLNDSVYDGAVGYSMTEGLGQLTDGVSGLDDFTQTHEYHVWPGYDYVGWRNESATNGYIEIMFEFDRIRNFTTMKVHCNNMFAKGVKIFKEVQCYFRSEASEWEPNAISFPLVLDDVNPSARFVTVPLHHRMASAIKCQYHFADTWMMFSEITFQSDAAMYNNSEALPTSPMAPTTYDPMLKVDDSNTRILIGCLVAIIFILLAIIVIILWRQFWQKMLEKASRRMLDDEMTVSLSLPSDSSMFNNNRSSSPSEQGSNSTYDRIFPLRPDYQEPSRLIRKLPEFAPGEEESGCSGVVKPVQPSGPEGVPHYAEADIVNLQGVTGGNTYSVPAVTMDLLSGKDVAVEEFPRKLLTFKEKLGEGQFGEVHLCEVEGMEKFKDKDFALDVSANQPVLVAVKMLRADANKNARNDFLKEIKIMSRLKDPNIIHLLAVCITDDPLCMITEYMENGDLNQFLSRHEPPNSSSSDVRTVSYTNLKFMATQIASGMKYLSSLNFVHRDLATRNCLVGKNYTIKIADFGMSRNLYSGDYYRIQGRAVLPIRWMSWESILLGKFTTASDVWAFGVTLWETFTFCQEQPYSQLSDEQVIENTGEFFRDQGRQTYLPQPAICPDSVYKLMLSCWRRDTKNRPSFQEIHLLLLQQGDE

[4] = target: T2, panel of 255 wild-type kinases (Homo sapiens, UniProt P29322)
T2 sequence (P29322 28-1005): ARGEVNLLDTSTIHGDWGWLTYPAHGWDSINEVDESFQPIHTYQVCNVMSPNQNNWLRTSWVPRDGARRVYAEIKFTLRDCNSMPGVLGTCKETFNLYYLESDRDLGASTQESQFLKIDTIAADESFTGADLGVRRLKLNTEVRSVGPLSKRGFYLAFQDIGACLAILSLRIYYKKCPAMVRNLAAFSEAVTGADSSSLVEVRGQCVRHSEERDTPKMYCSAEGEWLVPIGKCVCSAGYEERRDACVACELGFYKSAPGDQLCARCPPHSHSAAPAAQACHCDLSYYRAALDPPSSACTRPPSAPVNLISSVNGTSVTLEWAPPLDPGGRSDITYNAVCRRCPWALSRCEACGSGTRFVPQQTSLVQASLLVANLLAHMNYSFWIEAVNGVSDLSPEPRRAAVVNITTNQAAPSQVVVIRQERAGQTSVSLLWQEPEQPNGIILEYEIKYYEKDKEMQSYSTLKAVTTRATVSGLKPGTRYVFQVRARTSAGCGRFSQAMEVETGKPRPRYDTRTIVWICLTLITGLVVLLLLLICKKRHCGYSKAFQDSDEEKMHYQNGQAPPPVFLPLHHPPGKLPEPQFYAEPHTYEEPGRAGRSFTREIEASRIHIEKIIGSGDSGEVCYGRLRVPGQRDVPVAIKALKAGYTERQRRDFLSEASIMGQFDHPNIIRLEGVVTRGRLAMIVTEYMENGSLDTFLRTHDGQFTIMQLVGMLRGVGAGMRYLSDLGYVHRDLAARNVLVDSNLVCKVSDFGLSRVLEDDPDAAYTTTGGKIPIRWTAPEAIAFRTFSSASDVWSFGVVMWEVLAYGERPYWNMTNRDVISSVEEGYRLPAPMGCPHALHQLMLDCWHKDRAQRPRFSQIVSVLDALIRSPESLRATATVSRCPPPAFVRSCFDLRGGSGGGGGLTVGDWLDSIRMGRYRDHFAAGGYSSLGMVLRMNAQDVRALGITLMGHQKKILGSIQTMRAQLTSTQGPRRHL

[5] = target: T3, panel of 255 wild-type kinases (Homo sapiens, UniProt Q96PF2)
T3 sequence (Q96PF2 1-358): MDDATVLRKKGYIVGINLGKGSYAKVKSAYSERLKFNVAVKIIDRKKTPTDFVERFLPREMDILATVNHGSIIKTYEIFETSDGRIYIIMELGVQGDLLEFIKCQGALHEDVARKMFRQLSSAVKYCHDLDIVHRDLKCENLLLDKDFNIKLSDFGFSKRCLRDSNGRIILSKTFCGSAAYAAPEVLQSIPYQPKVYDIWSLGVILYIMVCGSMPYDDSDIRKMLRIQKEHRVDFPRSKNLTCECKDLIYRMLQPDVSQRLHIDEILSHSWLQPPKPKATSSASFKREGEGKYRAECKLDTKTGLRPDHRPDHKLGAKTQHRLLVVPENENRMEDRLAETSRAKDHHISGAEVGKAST

[6] = target: panel of 255 wild-type kinases (Homo sapiens, UniProt Q05397)
[7] = kinase SIK, 1 µmol/L single concentration, ref DOI: 10.1158/1535-7163.MCT-18-0877
[8] = kinase PKCδ, 1 µmol/L single concentration, ref DOI: 10.1158/1535-7163.MCT-18-0877
[9] = kinase DDR2, 1 µmol/L single concentration, ref DOI: 10.1158/1535-7163.MCT-18-0877
[10] = kinase EPHA8, 1 µmol/L single concentration, ref DOI: 10.1158/1535-7163.MCT-18-0877
[11] = kinase TSSK2, 1 µmol/L single concentration, ref DOI: 10.1158/1535-7163.MCT-18-0877
[12] = kinase FAK, 1 µmol/L single concentration, ref DOI: 10.1158/1535-7163.MCT-18-0877
[13] = kinase SIK, 1 µmol/L single concentration, ref DOI: 10.1371/journal.pone.0092146
[14] = kinase PKCδ, 1 µmol/L single concentration, ref DOI: 10.1371/journal.pone.0092146
[15] = kinase DDR2, 1 µmol/L single concentration, ref DOI: 10.1371/journal.pone.0092146
[16] = kinase EPHA8, 1 µmol/L single concentration, ref DOI: 10.1371/journal.pone.0092146
[17] = kinase TSSK2, 1 µmol/L single concentration, ref DOI: 10.1371/journal.pone.0092146
[18] = kinase FAK, 1 µmol/L single concentration, ref DOI: 10.1371/journal.pone.0092146

SMILES | %-inhibition at 1 µmol/L, SIK [1, 7] [%] | %-inhibition at 1 µmol/L, PKCδ [2, 8] [%] | %-inhibition at 1 µmol/L, DDR2 [3, 9] [%] | %-inhibition at 1 µmol/L, EPHA8 [4, 10] [%] | %-inhibition at 1 µmol/L, TSSK2 [5, 11] [%] | %-inhibition at 1 µmol/L, FAK [6, 12] [%] | %-inhibition at 1 µmol/L, SIK [1, 13] [%] | %-inhibition at 1 µmol/L, PKCδ [2, 14] [%] | %-inhibition at 1 µmol/L, DDR2 [3, 15] [%] | %-inhibition at 1 µmol/L, EPHA8 [4, 16] [%] | %-inhibition at 1 µmol/L, TSSK2 [5, 17] [%] | %-inhibition at 1 µmol/L, FAK [6, 18] [%] | also measured
CC#CC(=O)N1CCC[C@H]1c1nc(-c2ccc(C(=O)Nc3ccccn3)cc2)c2c(N)nccn12 [acalabrutinib] | 0.256 | -9 | 6 | 6.51 | -3 | -1.39 | – | – | – | – | – | – | –
CCc1cc2c(cc1N1CCC(N3CCOCC3)CC1)C(C)(C)c1[nH]c3cc(C#N)ccc3c1C2=O [alectinib] | 12 | 1.83 | 8 | 12 | 7 | 17 | – | – | – | – | – | – | –
COc1cc(N2CCC(N3CCN(C)CC3)CC2)ccc1Nc1ncc(Cl)c(Nc2ccccc2P(C)(C)=O)n1 [brigatinib] | – | – | – | – | – | – | – | – | – | – | – | – | %-inhibition at 1 µmol/L, SIK [1]: 99%; %-inhibition at 1 µmol/L, PKCδ [2]: 34%; %-inhibition at 1 µmol/L, DDR2 [3]: 60%; %-inhibition at 1 µmol/L, EPHA8 [4]: 6.55%; %-inhibition at 1 µmol/L, TSSK2 [5]: 79%; %-inhibition at 1 µmol/L, FAK [6]: 99%
Cc1cc(Nc2ncc(Cl)c(Nc3ccccc3S(=O)(=O)C(C)C)n2)c(OC(C)C)cc1C1CCNCC1 [ceritinib] | 15 | 5 | 12 | 6 | 75 | 100 | – | – | – | – | – | – | –
O=C(c1ccc(F)c(F)c1Nc1ccc(I)cc1F)N1CC(O)([C@@H]2CCCCN2)C1 [cobimetinib] | 0.384 | -2.12 | 0.567 | -5.33 | -2.33 | -4 | – | – | – | – | – | – | –
C[C@@H](Oc1cc(-c2cnn(C3CCNCC3)c2)cnc1N)c1c(Cl)ccc(F)c1Cl [crizotinib] | – | – | – | – | – | – | 26 | -1.14 | 88 | 82 | 0.896 | 90 | –
CC(C)(C)c1nc(-c2cccc(NS(=O)(=O)c3c(F)cccc3F)c2F)c(-c2ccnc(N)n2)s1 [dabrafenib] | – | – | – | – | – | – | 100 | -6 | 100 | 35 | -1.73 | 13 | –
C=CC(=O)N1CCC[C@@H](n2nc(-c3ccc(Oc4ccccc4)cc3)c3c(N)ncnc32)C1 [ibrutinib] | 8 | 0.525 | 17 | 55 | -4 | 5 | – | – | – | – | – | – | –
CO[C@@H]1[C@H](N(C)C(=O)c2ccccc2)C[C@H]2O[C@]1(C)n1c3ccccc3c3c4c(c5c6ccccc6n2c5c31)C(=O)NC4 [midostaurin] | 99 | – | 97 | 6.51 | 24 | 28 | – | – | – | – | – | – | %-inhibition at 1 µmol/L, PKCδ [2]: 93%
C=CC(=O)Nc1cc(Nc2nccc(-c3cn(C)c4ccccc34)n2)c(OC)cc1N(C)CCN(C)C [osimertinib] | 22 | 16 | 25 | -8 | -0.257 | 81 | – | – | – | – | – | – | –
CC(=O)Nc1cccc(-n2c(=O)n(C3CC3)c(=O)c3c(Nc4ccc(I)cc4F)n(C)c(=O)c(C)c32)c1 [trametinib] | – | – | – | – | – | – | -3 | -4.75 | 0.612 | -8 | -1.73 | -2.41 | –
CCCS(=O)(=O)Nc1ccc(F)c(C(=O)c2c[nH]c3ncc(-c4ccc(Cl)cc4)cc23)c1F [vemurafenib] | – | – | – | – | – | – | 24 | -5 | 69 | 7 | -11 | -3.55 | –
